Test results from US20240374558A1, “PREPARATION OF PHENE[…] […] STEREOISOMERS THEREOF AND PRECURSORS THEREOF” (priority 2022, published 2024).
Structures can show the parent of a compound that is named as a salt.

Columns and labels:
Type in all cases: cell-based
Kir2.1 = target: T1, Kir2.1 (Homo sapiens, UniProt P63252); conditions: Antagonist mode; HEK-Kir2.1; test compound
T1 construct: host or cells: HEK
T1 sequence (P63252 1-427): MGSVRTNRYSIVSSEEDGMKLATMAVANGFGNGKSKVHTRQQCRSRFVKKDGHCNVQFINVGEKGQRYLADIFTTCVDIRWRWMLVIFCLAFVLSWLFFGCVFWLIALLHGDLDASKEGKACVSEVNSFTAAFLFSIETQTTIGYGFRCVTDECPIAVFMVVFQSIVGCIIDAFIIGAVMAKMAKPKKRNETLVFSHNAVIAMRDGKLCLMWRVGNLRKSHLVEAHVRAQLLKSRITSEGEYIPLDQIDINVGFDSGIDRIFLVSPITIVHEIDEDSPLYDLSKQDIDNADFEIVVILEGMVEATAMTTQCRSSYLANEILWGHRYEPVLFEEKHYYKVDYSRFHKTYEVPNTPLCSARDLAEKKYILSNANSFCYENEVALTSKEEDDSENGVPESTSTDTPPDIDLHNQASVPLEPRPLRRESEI
Experimental: (§1) Electrophysiological assays were conducted to profile three compounds ((R)-methylone, (S)-methylone, or racemic methylone) for activities on the ion channel targets specified below using the Qube electrophysiological platform. Where presented, IC50 values were determined by a non-linear, least squares regression analysis. Reference standards were run as an integral part of each assay to ensure the validity of the results obtained.
(§2) Ion Channels tested were Eurofins Panel Part Number: CPROFullQB2DR Voltage-Gated Sodium: HEK-Nav1.5 (Peak), HEK-Nav1.5 (Late, Antagonist) Voltage-Gated Potassium: HEK-Kv4.3/KChIP2, CHO-hERG, CHO-KCNQ1/minK Voltage-Gated Calcium: HEK-Cav1.2 Inward-Rectifying Voltage-Gated Potassium: HEK-Kir2.1.
(§3) hKCNQ1/hminK Potassium Channel Assay—Qube APC After whole cell configuration is achieved, the cells are held at −80 mV. KCNQ1/minK currents are evoked by a 1000 ms pulse from −80 mV to 60 mV followed by a ramp from 60 mV to −80 mV over 115 ms with the outward peak currents measured upon depolarization of the cell membrane. This paradigm is delivered once every 15s to monitor the current amplitude. [0223] hKir2.1 Potassium Channel Assay—Qube APC After whole cell configuration is achieved, the cells are held at −30 mV. Kir2.1 currents are evoked by a single 500 ms pulse to -120 mV before returning to the holding potential of −30 mV. This paradigm is delivered once every 20s to monitor the current amplitude.

Nav1.5 = target: T2, Nav1.5 (Homo sapiens, UniProt Q14524); experiment: hNav1.5 Sodium Channel Assay (peak), Qube APC; conditions: Antagonist mode; HEK-Nav1.5 (Peak); test compound
T2 construct: host or cells: HEK-293
Experimental: (§4) Where presented, IC50 values were determined by a non-linear, least squares regression analysis.
(§5) Recombinant HEK-293 cells stably transfected with human NavL.5 cDNA, recombinant HEK293 cell line expressing the human Cavl.2 (L-type voltage gated calcium channel, hCavl.2 alC/02a/a281, and recombinant CHO-K1 cells stably transfected with human hERG cDNA were used separately in each of these assays.
as §2
Methods employed in this study have been developed and validated with reliability and reproducibility by Eurofins. Assays were performed under conditions below. […] Peak current is measured during the step to −15 mV. […] Onset and steady state block of hKv4.3 current is measured using a pulse pattern from −80 mV to 40 mV amplitude for a 110 ms duration, and finally a 100 ms ramp (1.2 V/s) to −80 mV. This paradigm is delivered once every 5s to monitor the current amplitude. […] Cavl.2 currents are evoked by a 50 ms pulse to −100 mV followed by a 200 ms pulse to +20 mV before returning to the holding potential of −90 mV. This paradigm is delivered three times every 60s to monitor the current amplitude. [0220] hNav1.5 Late Current Sodium Channel Assay—Qube APC Onset and steady state block of Late Nay1.5 current is measured using a pulse pattern, repeated every 5 sec, consisting of a hyperpolarizing pulse to −120 mV for a 200 ms duration, depolarization to −15 mV amplitude for a 40 ms duration, followed by step to 40 mV for 200 ms and finally a 100 ms ramp (1.2 V/s) to a holding potential of −80 mV. Late current is measured as charge current elicited during the ramp with 50 nM ATXII.

hERG = target: T3, hERG (Homo sapiens, UniProt Q12809); experiment: hERG Potassium Channel Assay, Qube APC; conditions: Antagonist mode; CHO-hERG; test compound
T3 construct: host or cells: CHO-K1
Experimental: as §4, §5, §2
hERG Potassium Channel Assay—Qube APC After whole cell configuration is achieved, the cells are held at −80 mV. Cells are held at this voltage for 50 ms to measure the leak current, which is subtracted from the tail current on-line. The cells are depolarized to +40 mV for 500 ms and then to −80 mV over a 100 ms ramp to elicit the hERG tail current. This paradigm is delivered once every 8s to monitor the current amplitude.

KCNQ1/mink = target: T4, KCNQ1/mink (Homo sapiens, UniProt P51787); experiment: hKCNQ1/hminK Potassium Channel Assay, Qube APC; conditions: Antagonist mode; CHO-KCNQ1/minK; test compound
T4 construct: host or cells: CHO
Experimental: as §1, §2, §3

T2 sequence (Q14524 whole entry): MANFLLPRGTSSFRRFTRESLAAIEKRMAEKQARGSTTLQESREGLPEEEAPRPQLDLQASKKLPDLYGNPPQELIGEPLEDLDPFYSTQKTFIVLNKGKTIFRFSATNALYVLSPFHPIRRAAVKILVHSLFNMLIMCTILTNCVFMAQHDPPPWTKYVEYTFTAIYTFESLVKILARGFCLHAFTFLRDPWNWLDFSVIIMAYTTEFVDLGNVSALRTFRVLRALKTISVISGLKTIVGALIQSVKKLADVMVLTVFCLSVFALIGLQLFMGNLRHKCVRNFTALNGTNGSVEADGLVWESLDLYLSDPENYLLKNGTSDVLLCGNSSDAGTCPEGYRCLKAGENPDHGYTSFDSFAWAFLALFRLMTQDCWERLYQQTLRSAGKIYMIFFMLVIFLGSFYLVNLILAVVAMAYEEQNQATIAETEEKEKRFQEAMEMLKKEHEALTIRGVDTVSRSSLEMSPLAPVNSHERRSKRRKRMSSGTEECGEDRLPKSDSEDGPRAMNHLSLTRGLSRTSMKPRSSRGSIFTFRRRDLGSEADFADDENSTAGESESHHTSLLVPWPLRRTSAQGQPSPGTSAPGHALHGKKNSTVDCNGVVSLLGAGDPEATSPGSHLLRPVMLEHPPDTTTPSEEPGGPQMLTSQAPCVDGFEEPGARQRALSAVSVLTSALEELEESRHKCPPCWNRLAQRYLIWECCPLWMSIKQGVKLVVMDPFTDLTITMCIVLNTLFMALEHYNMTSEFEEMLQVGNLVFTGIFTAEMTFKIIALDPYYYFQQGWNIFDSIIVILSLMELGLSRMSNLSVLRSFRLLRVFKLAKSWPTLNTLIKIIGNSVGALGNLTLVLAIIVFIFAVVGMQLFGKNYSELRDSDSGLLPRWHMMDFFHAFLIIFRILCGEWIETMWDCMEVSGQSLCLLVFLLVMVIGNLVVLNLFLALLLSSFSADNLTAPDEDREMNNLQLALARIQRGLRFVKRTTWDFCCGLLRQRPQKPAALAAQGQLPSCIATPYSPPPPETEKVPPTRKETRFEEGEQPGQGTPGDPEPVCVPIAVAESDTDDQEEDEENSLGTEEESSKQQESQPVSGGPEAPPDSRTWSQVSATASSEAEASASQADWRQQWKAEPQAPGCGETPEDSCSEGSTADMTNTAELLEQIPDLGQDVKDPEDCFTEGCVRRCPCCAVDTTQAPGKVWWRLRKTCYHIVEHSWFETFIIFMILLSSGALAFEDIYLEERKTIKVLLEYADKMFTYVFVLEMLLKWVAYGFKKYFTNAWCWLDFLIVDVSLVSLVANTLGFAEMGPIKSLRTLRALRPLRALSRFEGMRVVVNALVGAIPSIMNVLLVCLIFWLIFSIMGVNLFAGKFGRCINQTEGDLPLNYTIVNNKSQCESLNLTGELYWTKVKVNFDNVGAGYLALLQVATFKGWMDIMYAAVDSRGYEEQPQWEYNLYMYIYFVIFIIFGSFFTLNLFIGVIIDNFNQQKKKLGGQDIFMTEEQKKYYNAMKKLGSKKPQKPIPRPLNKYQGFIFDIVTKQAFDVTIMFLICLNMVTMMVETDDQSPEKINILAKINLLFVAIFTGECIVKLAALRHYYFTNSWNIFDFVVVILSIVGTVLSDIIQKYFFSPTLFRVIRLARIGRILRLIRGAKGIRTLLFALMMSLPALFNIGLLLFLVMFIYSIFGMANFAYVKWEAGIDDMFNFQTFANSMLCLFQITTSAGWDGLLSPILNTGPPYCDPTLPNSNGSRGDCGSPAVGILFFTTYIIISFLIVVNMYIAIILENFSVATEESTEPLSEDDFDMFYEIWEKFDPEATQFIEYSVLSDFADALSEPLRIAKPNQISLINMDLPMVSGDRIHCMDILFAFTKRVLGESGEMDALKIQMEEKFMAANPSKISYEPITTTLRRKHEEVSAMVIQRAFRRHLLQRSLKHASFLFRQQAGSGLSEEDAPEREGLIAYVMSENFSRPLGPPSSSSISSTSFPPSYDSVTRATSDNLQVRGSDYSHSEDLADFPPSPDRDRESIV
T4 sequence (P51787 whole entry): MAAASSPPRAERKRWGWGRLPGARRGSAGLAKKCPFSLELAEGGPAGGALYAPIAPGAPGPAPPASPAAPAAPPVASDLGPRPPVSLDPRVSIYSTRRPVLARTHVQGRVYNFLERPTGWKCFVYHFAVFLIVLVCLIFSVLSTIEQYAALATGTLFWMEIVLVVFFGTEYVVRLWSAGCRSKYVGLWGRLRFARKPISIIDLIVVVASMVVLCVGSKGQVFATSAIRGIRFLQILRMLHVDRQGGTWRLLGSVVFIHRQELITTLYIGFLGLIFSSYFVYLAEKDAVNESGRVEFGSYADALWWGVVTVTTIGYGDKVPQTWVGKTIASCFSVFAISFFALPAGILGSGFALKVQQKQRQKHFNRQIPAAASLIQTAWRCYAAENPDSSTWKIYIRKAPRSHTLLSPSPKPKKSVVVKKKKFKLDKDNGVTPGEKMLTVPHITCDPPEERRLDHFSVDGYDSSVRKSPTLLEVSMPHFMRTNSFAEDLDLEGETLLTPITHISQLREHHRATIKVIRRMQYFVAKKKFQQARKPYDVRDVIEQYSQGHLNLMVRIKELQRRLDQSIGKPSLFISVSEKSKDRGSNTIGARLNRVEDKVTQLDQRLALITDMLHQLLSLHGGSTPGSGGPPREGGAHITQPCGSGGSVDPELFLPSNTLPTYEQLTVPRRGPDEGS
T3 sequence (Q12809 whole entry): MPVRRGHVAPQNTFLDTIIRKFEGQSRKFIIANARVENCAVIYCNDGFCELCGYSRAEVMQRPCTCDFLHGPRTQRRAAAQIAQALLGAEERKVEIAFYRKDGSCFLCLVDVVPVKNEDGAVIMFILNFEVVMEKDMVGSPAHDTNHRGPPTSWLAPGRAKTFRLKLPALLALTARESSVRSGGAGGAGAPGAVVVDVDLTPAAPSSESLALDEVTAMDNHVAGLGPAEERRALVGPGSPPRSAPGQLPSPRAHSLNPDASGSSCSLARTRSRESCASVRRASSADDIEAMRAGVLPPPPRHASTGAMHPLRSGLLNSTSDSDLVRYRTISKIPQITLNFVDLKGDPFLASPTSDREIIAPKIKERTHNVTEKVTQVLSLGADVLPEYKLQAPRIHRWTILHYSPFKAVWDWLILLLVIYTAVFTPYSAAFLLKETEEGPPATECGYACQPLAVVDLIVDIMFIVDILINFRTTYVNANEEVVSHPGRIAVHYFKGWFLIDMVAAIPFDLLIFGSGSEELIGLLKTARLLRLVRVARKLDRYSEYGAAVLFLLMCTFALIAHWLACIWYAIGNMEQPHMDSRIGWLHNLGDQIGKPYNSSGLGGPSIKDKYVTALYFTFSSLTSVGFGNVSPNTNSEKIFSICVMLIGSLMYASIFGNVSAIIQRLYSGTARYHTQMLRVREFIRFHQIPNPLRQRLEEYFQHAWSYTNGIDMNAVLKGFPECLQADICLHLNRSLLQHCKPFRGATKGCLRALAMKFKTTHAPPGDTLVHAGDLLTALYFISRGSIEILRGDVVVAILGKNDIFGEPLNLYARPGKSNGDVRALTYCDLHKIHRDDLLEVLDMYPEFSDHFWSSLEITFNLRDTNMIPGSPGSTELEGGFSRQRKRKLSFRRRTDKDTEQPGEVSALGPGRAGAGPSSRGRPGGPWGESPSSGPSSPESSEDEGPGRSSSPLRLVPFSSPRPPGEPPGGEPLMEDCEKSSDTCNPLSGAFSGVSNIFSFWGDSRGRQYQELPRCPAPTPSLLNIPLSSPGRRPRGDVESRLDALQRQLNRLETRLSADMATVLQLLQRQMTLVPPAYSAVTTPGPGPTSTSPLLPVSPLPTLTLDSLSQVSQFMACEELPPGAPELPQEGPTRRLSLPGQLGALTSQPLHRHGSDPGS

SMILES	Estimated IC50 (Kir2.1)	Estimated IC50 (Nav1.5)	Estimated IC50 (hERG)	Estimated IC50 (KCNQ1/mink)
CN[C@H](C)C(=O)c1ccc2c(c1)OCO2 [(R)-methylone]	N/C (N/C indicates observed mean inhibition was <25%)	N/C (N/C indicates observed mean inhibition was <25%)	N/C (N/C indicates observed mean inhibition was <25%)	N/C (N/C indicates observed mean inhibition was <25%)
CN[C@@H](C)C(=O)c1ccc2c(c1)OCO2 [(S)-methylone]	N/C (N/C indicates observed mean inhibition was <25%)	N/C (N/C indicates observed mean inhibition was <25%)	N/C (N/C indicates observed mean inhibition was <25%)	N/C (N/C indicates observed mean inhibition was <25%)
CNC(C)C(=O)c1ccc2c(c1)OCO2 (centres unmarked) [Methylone HCl, methylone HCl]	N/C (N/C indicates observed mean inhibition was <25%)	N/C (N/C indicates observed mean inhibition was <25%)		N/C (N/C indicates observed mean inhibition was <25%)
